Test results published in US20060240505A1, “Identification of Targets of Antimicrobial Compounds” (priority 2000, published 2006).
≈ marks a conversion by molar mass, not a printed value. Where two headings read alike, the source gives them in different places.

What was measured:
RN4220/pYH4MurA1 = assay: MIC of phosphomycin against S. aureus RN4220 carrying the murA1 ORF clone, with and without inducer; assay type: cell-based
Description: (§1) The murA1 ORF is cloned into the pYH4 expression vector, the features of which are described above, and the anhydrotetracycline inducer is added to a sample containing the murA1 ORF. In addition, a control sample containing only the vector is induced and the MICs of the induced and uninduced vector are determined. […] This confirms that murA1 is a target of phosphomycin.

RN4220/pYH4 = assay: MIC against S. aureus RN4220 carrying empty expression vector pYH4 (control), with and without inducer; assay type: cell-based
Description: (§2) The pYH4 expression vector was used to clone the FabI ORF and it served as a control for the experiment.
as §1
as §1, with “metRS” for “murA1”, “ORF. The MICs for the anitmicrobial compound of induced and uninduced samples are determined.” for “ORF.”, “the exemplified antimicrobial compound.” for “phosphomycin.”

RN4220/pYH4-fabI = assay: MIC of triclosan against S. aureus RN4220 carrying the fabI ORF clone, with and without inducer; assay type: cell-based; details: Staphylococcus aureus, strain RN4220/pYH4-fabI, read-out: MIC concentration of triclosan necessary to inhibit the strain
Excerpt: This confirms that FabI is a target of triclosan.
as §2

[1] = tested on: RN4220/pYH4 and RN4220/pYH4-fabI mixed in the ratio of 100:1; assay: Selection of triclosan resistant colonies on TSA plates from a mixed culture; assay type: cell-based, S. aureus; details: approximately 1,000 bacterial cells plated
Description: In the experiment, a S. aureus strain with expression vector (RN4220/pYH4) was combined with the expression vector and FabI open reading frame (RN4220/pYH4-fabI) in the ratio of 100:1. Then, approximately 1,000 bacterial cells of this mixture were plated onto TSA plates containing: (1) no triclosan (-triclosan); (2) 0.25 μg/ml of triclosan; and (3) 0.25 μg/ml of triclosan plus 0.4 μg/ml anhydrotetracycline inducer. […] The third plate was indicative of FabI-containing clones which are confirmed to be targets of the triclosan antimicrobial compound.

Row | Compound | MIC of the induced murA1 gene relative to the uninduced vector alone (RN4220/pYH4MurA1; induced murA1 clone vs uninduced vector) [fold] | MIC of phosphomycin (RN4220/pYH4MurA1; strain RN4220/pYH4MurA1, +ATc) [µg/mL] | MIC of phosphomycin (RN4220/pYH4MurA1; strain RN4220/pYH4MurA1, −Atc) [µg/mL] | MIC of the uninduced murA1 gene relative to the uninduced vector alone (RN4220/pYH4MurA1; uninduced murA1 clone vs uninduced vector) [fold] | MIC of phosphomycin (RN4220/pYH4; strain RN4220/pYH4, +ATc) [µg/mL] | MIC of phosphomycin (RN4220/pYH4; strain RN4220/pYH4, −Atc) [µg/mL] | MIC (RN4220/pYH4; Staphylococcus aureus, strain RN4220/pYH4, −inducer, read-out: MIC concentration of triclosan necessary to inhibit the strain) [µg/mL] | MIC concentration of triclosan necessary to inhibit the strain (RN4220/pYH4; strain RN4220/pYH4, +inducer) [µg/mL] | MIC (RN4220/pYH4-fabI; +inducer) [µg/mL] | MIC (RN4220/pYH4-fabI; −inducer) [µg/mL] | colonies grown on TSA plate ([1]; 0.25 μg/ml triclosan plus 0.4 μg/ml anhydrotetracycline inducer) [colonies] | colonies grown on TSA plate ([1]; 0.25 μg/ml triclosan, no inducer)
1 | C[C@@H]1O[C@@H]1P(=O)(O)O [phosphomycin] | 64 | 256 | 32 | 8 | 2 | 4 | – | – | – | – | – | –
2 | Oc1cc(Cl)ccc1Oc1ccc(Cl)cc1Cl [triclosan] | – | – | – | – | – | – | 0.0625 (≈ 0.216 µM) | 0.0625 | 1 | 0.0625 | 15 | no colonies grew
